Tests used:
MCF-7 cells = test: In vitro activity against cancer cell lines (MTT), MCF-7; assay type: cell-based; details: Homo sapiens, MCF7, mean ± SD of three replicates
Description: (§1) Co., Ltd. A549 (Human non-small-cell lung cancer cell line) cells, MCF-7 (Human breast cancer
(§2) cell line) cells, and PC-3 (Human prostate cancer cell line) cells. They were all purchased from the
(§3) Shanghai Cell Bank of the Chinese Academy of Sciences. NRK-52E (Normal rat kidney cell line)
(§4) cells donated by Guizhou Medicinal University were also used to evaluate the cytotoxicity.

PC-3 cells = test: In vitro activity against cancer cell lines (MTT), PC-3; assay type: cell-based; details: Homo sapiens, mean ± SD of three replicates
Description: as §1, §2, §3, §4

A549 cells = test: In vitro activity against cancer cell lines (MTT), A549; assay type: cell-based; details: Homo sapiens, mean ± SD of three replicates
Description: as §1, §2, §3, §4

EGFR^wt-TK = molecular target: T1, EGFR^wt-TK (Homo sapiens, UniProt P00533); test: In vitro EGFR^wt-TK assay (ELISA kit); assay type: biochemical; details: mean ± SD of three replicates; for inhibition at 1 µM: read-out: EGFR^wt-TK inhibition rate; for inhibition at 1 µM / EGFR^wt-TK inhibition rate: 1 μM
T1 construct: purchased
T1 sequence (P00533 25-1210): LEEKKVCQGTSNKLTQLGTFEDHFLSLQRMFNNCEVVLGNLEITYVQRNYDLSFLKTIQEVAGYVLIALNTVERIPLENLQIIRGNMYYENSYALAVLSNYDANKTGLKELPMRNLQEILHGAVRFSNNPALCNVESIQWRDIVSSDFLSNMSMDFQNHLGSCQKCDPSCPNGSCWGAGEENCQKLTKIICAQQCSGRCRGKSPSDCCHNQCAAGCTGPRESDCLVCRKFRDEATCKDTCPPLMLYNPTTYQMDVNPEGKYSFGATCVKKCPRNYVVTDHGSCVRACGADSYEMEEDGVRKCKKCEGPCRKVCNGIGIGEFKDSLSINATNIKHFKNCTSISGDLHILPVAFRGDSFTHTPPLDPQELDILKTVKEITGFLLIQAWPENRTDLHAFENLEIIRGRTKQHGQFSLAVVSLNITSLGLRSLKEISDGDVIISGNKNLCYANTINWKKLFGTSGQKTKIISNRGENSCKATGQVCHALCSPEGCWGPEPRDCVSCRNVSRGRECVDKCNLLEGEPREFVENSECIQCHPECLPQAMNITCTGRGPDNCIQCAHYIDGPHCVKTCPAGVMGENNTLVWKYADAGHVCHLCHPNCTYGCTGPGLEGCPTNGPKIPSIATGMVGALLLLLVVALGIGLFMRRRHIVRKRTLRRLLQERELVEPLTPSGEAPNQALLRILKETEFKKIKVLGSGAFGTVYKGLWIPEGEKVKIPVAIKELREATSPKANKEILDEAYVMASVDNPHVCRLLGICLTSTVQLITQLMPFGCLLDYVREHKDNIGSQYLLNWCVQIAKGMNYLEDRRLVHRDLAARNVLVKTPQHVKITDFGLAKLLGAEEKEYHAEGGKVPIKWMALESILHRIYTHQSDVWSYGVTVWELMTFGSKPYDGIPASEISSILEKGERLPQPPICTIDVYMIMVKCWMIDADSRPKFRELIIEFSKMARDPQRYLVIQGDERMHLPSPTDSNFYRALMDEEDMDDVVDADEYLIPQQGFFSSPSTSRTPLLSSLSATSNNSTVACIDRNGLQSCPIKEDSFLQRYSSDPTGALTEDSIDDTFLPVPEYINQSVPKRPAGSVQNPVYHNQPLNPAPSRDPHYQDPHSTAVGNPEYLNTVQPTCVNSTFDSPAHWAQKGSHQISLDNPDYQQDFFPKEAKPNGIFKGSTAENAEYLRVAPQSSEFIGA
Protocol: The IC50 values of target compounds against EGFR^wt were calculated from the dose − response curve under Graph-Pad Prism 9, which was tested at the different concentrations.

Row | IC50 (MCF-7 cells) [µM] | IC50 (PC-3 cells) [µM] | melting point [°C] | IC50 (A549 cells) [µM] | inhibition at 1 µM (EGFR^wt-TK) [%] | EGFR^wt-TK inhibition rate (EGFR^wt-TK) [%] | IC50 (EGFR^wt-TK) [µM] | Compound
1 | 6.05 ± 0.82 | 11.2 ± 1.68 | 213.3 to 215.4 | 4.03 ± 0.47 | 46.3 ± 1.85 |  |  | CNC(=O)c1sccc1Nc1nc(Nc2ccc(NC(=O)c3ccccc3F)cc2)ncc1C(F)(F)F [Compound 9b, 3-{2-[4-(2-Fluoro-benzoylamino)-phenylamino]-5-trifluoromethyl-pyrimidin-4-ylamino}-thiophene-2-carboxylic acid methylamide]
2 | > 20 | > 20 | > 250 | 16.5 ± 2.31 | 12.6 ± 1.07 |  |  | CNC(=O)c1sccc1Nc1nc(Nc2ccc(NC(=O)C3CC3)cc2)ncc1C(F)(F)F [Compound 9l, 3-{2-[4-(Cyclopropanecarbonyl-amino)-phenylamino]-5-trifluoromethyl-pyrimidin-4-ylamino}-thiophene-2-carboxylic acid methylamide]
3 | 4.13 ± 0.21 | 7.88 ± 1.34 | 248.8 to 249.1 | 0.46 ± 0.27 | > 50 | 58.14 ± 1.76 | 0.14 ± 0.053 | CNC(=O)c1sccc1Nc1nc(Nc2ccc(NC(=O)C=Cc3ccc(F)cc3)cc2)ncc1C(F)(F)F [Compound 9v, 3–(2-{4-[3-(4-Fluoro-phenyl)-acryloylamino]-phenylamino}-5-trifluoromethyl-pyrimidin-4-ylamino)-thiophene-2-carboxylic acid methylamide]
4 | 6.54 ± 0.53 | 12.2 ± 1.54 | 232 to 233.5 | 5.13 ± 0.46 | 41.1 ± 1.79 |  |  | CNC(=O)c1sccc1Nc1nc(Nc2ccc(NC(=O)c3cccc(C(F)(F)F)c3)cc2)ncc1C(F)(F)F [Compound 9f, 3-{5-Trifluoromethyl-2-[4-(3-trifluoromethyl-benzoylamino)-phenylamino]-pyrimidin-4-ylamino}-thiophene-2-carboxylic acid methylamide]
5 | 13.5 ± 1.24 | > 20 | 246.7 to 248.2 | 8.49 ± 0.63 | 26.6 ± 1.38 |  |  | CNC(=O)c1sccc1Nc1nc(Nc2ccc(NC(=O)C3CCCCC3)cc2)ncc1C(F)(F)F [Compound 9o, 3-{2-[4-(Cyclohexanecarbonyl-amino)-phenylamino]-5-trifluoromethyl-pyrimidin-4-ylamino}-thiophene-2-carboxylic acid methylamide]
6 | 10 ± 0.96 | > 20 | 232.3 to 233.8 | 7.28 ± 0.47 | 36.46 ± 0.23 |  |  | CNC(=O)c1sccc1Nc1nc(Nc2ccc(NC(=O)C3CCOCC3)cc2)ncc1C(F)(F)F [Compound 9p, Tetrahydro-pyran-4-carboxylicacid{4-[4-(2-methylcarbamoyl-thiophen-3-ylamino)-5-trifluoromethyl-pyrimidin-2-ylamino]-phenyl}-amide]
7 | 10.6 ± 1.58 | > 20 |  | 7.65 ± 0.39 | 35.5 ± 0.89 |  |  | CNC(=O)c1sccc1Nc1nc(Nc2ccc(NC(=O)C3CCC(=O)CC3)cc2)ncc1C(F)(F)F [Compound 9q, N-Methyl-3-((2-((4-(4-oxocyclohexane-1-carboxamido)phenyl)amino)-5-(trifluoromethyl)pyrimidin-4-yl)amino)thiophene-2-carboxamide]
8 | 9.75 ± 0.85 | > 20 | > 250 | 6.92 ± 0.38 | 37.1 ± 0.46 |  |  | CNC(=O)c1sccc1Nc1nc(Nc2ccc(NC(=O)C3CCN(C(C)=O)CC3)cc2)ncc1C(F)(F)F [Compound 9s, 1-Acetyl-piperidine-4-carboxylicacid{4-[4-(2-methylcarbamoyl-thiophen-3-ylamino)-5-trifluoromethyl-pyrimidin-2-ylamino]-phenyl}-amide]
9 | 6.15 ± 0.77 | 10.6 ± 1.74 | > 250 | 3.98 ± 0.83 | 47.7 ± 1.72 |  |  | CNC(=O)c1sccc1Nc1nc(Nc2ccc(NC(=O)Nc3cccc(F)c3)cc2)ncc1C(F)(F)F [Compound 9w, 3-(2-{4-[3–(3-Fluoro-phenyl)-ureido]-phenylamino}-5-trifluoromethyl-pyrimidin-4-ylamino)-thiophene-2-carboxylic acid methylamide]
10 | 5.32 ± 0.74 | 16.4 ± 2.27 | 239.8 to 241.5 | 2.23 ± 0.42 | > 50 | 55.48 ± 1.71 | 0.31 ± 0.095 | CNC(=O)c1sccc1Nc1nc(Nc2ccc(NC(=O)c3cccc(F)c3)cc2)ncc1C(F)(F)F [Compound 9c, 3-{2-[4–(3-Fluoro-benzoylamino)-phenylamino]-5-trifluoromethyl-pyrimidin-4-ylamino}-thiophene-2-carboxylic acid methylamide]
11 | > 20 | > 20 |  | > 20 | 8.76 ± 0.68 |  |  | CNC(=O)c1sccc1Nc1nc(Nc2ccc(NC(=O)C(C)C)cc2)ncc1C(F)(F)F [Compound 9j, 3-[2-(4-Isobutyrylamino-phenylamino)-5-trifluoromethyl-pyrimidin-4-ylamino]-thiophene-2-carboxylic acid methylamide]
12 | 3.37 ± 0.62 | 11.3 ± 1.42 | 211.9 to 213.1 | 1.66 ± 0.54 | > 50 | 56.43 ± 0.51 | 0.35 ± 0.062 | CNC(=O)c1sccc1Nc1nc(Nc2ccc(NC(=O)c3cc(OC)c(OC)c(OC)c3)cc2)ncc1C(F)(F)F [Compound 9h, 3-{5-Trifluoromethyl-2-[4-(3,4,5-trimethoxy-benzoylamino)-phenylamino]-pyrimidin-4-ylamino}-thiophene-2-carboxylic acid methylamide]
13 |  | 17 ± 1.82 | 218.9 to 219.7 | 2.77 ± 0.59 | > 50 | 54.49 ± 1.44 | 0.44 ± 0.11 | CNC(=O)c1sccc1Nc1nc(Nc2ccc(NC(=O)c3ccc(F)c(F)c3)cc2)ncc1C(F)(F)F [Compound 9e, 3-{2-[4-(3,4-Difluoro-benzoylamino)-phenylamino]-5-trifluoromethyl-pyrimidin-4-ylamino}-thiophene-2-carboxylic acid methylamide]
14 |  | 16.7 ± 1.53 | 217.2 to 219.3 | 3.75 ± 0.55 | 49.38 ± 0.47 |  |  | CNC(=O)c1sccc1Nc1nc(Nc2ccc(NC(=O)c3ccc(F)cc3)cc2)ncc1C(F)(F)F [Compound 9d, 3-{2-[4-(4-Fluoro-benzoylamino)-phenylamino]-5-trifluoromethyl-pyrimidin-4-ylamino}-thiophene-2-carboxylic acid methylamide]
15 | 10.1 ± 1.18 | > 20 | 229.4 to 230.6 | 7.63 ± 0.62 | 28.8 ± 0.62 |  |  | CNC(=O)c1sccc1Nc1nc(Nc2ccc(NC(=O)c3ccc(OC)cc3)cc2)ncc1C(F)(F)F [Compound 9g, 3-{2-[4-(4-Methoxy-benzoylamino)-phenylamino]-5-trifluoromethyl-pyrimidin-4-ylamino}-thiophene-2-carboxylic acid methylamide]
16 | > 20 | > 20 |  | 17.8 ± 1.67 | 11.9 ± 0.35 |  |  | CCC(=O)Nc1ccc(Nc2ncc(C(F)(F)F)c(Nc3ccsc3C(=O)NC)n2)cc1 [Compound 9i, 3-[2-(4-Propionylamino-phenylamino)-5-trifluoromethyl-pyrimidin-4-ylamino]-thiophene-2-carboxylic acid methylamide]
17 | 6.38 ± 0.97 | 11.5 ± 1.23 | > 250 | 4.25 ± 0.86 | 44.5 ± 1.84 |  |  | CNC(=O)c1sccc1Nc1nc(Nc2ccc(NC(=O)Nc3ccc(F)cc3)cc2)ncc1C(F)(F)F [Compound 9x, 3–(2-{4-[3–(4-Fluoro-phenyl)-ureido]-phenylamino}-5-trifluoromethyl-pyrimidin-4-ylamino)-thiophene-2-carboxylic acid methylamide]
18 | 11.9 ± 1.36 | 14.6 ± 0.83 | 212.5 to 213.8 | 8.51 ± 0.94 | 32.5 ± 2.56 |  |  | CNC(=O)c1sccc1Nc1nc(Nc2ccc(NC(=O)c3ccccc3)cc2)ncc1C(F)(F)F [Compound 9a, 3-[2-(4-Benzoylamino-phenylamino)-5-trifluoromethyl-pyrimidin-4-ylamino]-thiophene-2-carboxylic acid methylamide]
19 | 4.91 ± 0.83 | 15.4 ± 2.38 |  | 1.82 ± 0.49 | > 50 | 55.73 ± 2.14 | 0.48 ± 0.073 | C#CC(=O)Nc1ccc(Nc2ncc(C(F)(F)F)c(Nc3ccsc3C(=O)NC)n2)cc1 [Compound 9k, 3-[2-(4-Propynoylamino-phenylamino)-5-trifluoromethyl-pyrimidin-4-ylamino]-thiophene-2-carboxylic acid methylamide]
20 | 6.45 ± 0.53 | > 20 | 212.5 to 213.8 | 3.67 ± 0.61 | > 50 | 53.56 ± 1.69 | 0.26 ± 0.071 | CNC(=O)c1sccc1Nc1nc(Nc2ccc(NC(=O)C=Cc3ccccc3)cc2)ncc1C(F)(F)F [Compound 9t, 3-{2-[4-(3-Phenyl-acryloylamino)-phenylamino]-5-trifluoromethyl-pyrimidin-4-ylamino}-thiophene-2-carboxylic acid methylamide]
21 | 11.2 ± 1.47 | > 20 | 210.8 to 211.6 | 8.41 ± 0.92 | 33 ± 0.57 |  |  | CNC(=O)c1sccc1Nc1nc(Nc2ccc(NC(=O)C3CCN(C)CC3)cc2)ncc1C(F)(F)F [Compound 9r, 1-Methyl-piperidine-4-carboxylicacid{4-[4-(2-methylcarbamoyl-thiophen-3-ylamino)-5-trifluoromethyl-pyrimidin-2-ylamino]-phenyl}-amide]

From article PMC9542405, “Design, synthesis and antitumor activity of 5-trifluoromethylpyrimidine derivatives as EGFR inhibitors” (Journal of Enzyme Inhibition and Medicinal Chemistry, 2022)
